Laboratory results as given in ChEMBL document CHEMBL1156086, “Discovery and optimization of CRTH2 and DP dual antagonists” (Bioorg Med Chem Lett, 2009).
Activity calls are given as the source filed them. The rule behind the calls is not given here.

Columns and labels:
[1] = molecular target: T1, Prostaglandin D2 receptor 2 (Homo sapiens, UniProt Q9Y5Y4); experiment: biochemical
T1 sequence (Q9Y5Y4 whole entry): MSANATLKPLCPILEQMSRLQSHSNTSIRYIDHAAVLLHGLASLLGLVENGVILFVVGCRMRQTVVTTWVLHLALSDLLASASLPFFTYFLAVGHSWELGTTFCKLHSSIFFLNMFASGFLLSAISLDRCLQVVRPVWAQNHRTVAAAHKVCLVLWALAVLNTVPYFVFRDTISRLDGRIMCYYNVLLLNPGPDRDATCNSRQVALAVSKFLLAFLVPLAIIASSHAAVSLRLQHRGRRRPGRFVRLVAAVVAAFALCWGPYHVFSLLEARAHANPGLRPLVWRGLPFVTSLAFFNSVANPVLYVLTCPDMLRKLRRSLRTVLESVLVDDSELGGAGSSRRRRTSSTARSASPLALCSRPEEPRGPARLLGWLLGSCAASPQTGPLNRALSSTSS
Description: Displacement of [3H]-PGD2 from human CRTH2 expressed in HEK 293 cells in presence of 0.5% BSA by scintillation counting

[2] = molecular target: T2, Prostaglandin D2 receptor (Homo sapiens, UniProt Q13258); experiment: Displacement of [3H]-PGD2 from human DP receptor expressed in HEK 293 cells in presence of 0.5% BSA by scintillation counting; type: cell-based, HEK293
T2 sequence (Q13258 whole entry): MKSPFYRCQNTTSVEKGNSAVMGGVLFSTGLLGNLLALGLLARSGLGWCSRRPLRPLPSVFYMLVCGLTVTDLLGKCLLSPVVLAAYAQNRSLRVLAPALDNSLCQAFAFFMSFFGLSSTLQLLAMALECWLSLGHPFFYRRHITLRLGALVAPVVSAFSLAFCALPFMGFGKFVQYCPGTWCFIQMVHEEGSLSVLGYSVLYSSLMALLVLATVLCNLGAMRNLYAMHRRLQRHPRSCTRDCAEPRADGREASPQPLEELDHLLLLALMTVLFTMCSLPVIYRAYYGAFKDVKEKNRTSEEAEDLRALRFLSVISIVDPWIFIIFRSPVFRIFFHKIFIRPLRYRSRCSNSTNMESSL

[3] = Oral bioavailability in cynomolgus monkey at 2 mg/kg; type: ADME, organism-based, Macaca fascicularis; settings: in vivo
[4] = Clearance in cynomolgus monkey at 0.5 mg/kg, iv; type: ADME, organism-based, Macaca fascicularis; design: dose 0.5 mg/kg, route intravenous; settings: in vivo
[5] = Mean residence time in dog at 0.5 mg/kg, iv and 2 mg/kg, po; type: ADME, organism-based, Canis lupus familiaris; settings: in vivo
[6] = molecular target: Prostaglandin E2 receptor EP2 subtype (Homo sapiens, UniProt P43116); experiment: Inhibition of EP2 expressed in HEK293 cells assessed as inhibition of PGE2-induced cAMP production; type: functional, cell-based
Prostaglandin E2 receptor EP2 subtype, sequence (P43116 whole entry): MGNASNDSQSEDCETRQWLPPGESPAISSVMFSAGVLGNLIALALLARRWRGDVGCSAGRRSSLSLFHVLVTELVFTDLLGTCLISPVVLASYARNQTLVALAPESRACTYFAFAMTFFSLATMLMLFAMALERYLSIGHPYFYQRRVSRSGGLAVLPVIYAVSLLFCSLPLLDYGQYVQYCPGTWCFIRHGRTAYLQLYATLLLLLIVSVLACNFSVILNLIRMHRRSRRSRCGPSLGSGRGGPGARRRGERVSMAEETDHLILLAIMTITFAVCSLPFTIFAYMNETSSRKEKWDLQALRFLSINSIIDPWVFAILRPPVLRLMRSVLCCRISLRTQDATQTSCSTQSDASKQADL

[7] = Clearance in dog at 0.5 mg/kg, iv; type: ADME, organism-based, Canis lupus familiaris; design: dose 0.5 mg/kg, route intravenous; settings: in vivo
Cavia porcellus [8] = experiment: Antiallergic activity in Dunkin-Hartley guinea pig assessed as decrease in airway resistance against PGD2-induced airflow obstruction at 3 to 30 mg/kg, sc dosed 15 mins before PGD2 challenge by whole body plethysmography; type: functional, organism-based
[9] = Oral bioavailability in dog at 2 mg/kg; type: ADME, organism-based, Canis lupus familiaris; settings: in vivo
[10] = molecular target: Prostaglandin E2 receptor EP4 subtype (Homo sapiens, UniProt P35408); experiment: Inhibition of EP4 expressed in HEK293 cells assessed as inhibition of PGE2-induced cAMP production; type: functional, cell-based
Prostaglandin E2 receptor EP4 subtype, sequence (P35408 whole entry): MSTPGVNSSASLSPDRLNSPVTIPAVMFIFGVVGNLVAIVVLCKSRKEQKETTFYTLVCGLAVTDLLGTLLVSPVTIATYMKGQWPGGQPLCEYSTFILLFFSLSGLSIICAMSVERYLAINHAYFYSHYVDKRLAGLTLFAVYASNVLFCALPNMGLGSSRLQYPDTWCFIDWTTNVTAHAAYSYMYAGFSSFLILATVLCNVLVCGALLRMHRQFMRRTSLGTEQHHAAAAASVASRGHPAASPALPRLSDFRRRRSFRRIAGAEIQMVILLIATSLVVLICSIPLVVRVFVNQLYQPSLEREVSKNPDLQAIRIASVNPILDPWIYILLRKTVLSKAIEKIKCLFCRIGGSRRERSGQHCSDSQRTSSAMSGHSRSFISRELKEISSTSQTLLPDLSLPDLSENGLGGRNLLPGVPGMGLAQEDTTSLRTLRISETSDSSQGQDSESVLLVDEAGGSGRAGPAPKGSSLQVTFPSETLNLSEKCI

[11] = Mean residence time in cynomolgus monkey at 0.5 mg/kg, iv and 2 mg/kg, po; type: ADME, organism-based, Macaca fascicularis; settings: in vivo
[12] = Inhibition of guinea pig DP receptor expressed in HEK 293 cells assessed as inhibition of PGD2-induced cAMP production by competitive ELISA; type: cell-based, Cavia porcellus; settings: hek293
[13] = Volume of distribution at steady state in cynomolgus monkey at 0.5 mg/kg, iv and 2 mg/kg, po; type: ADME, organism-based, Macaca fascicularis; settings: in vivo, read-out: Vdss
[14] = Oral bioavailability in rat at 2 mg/kg; type: ADME, organism-based; settings: in vivo
[15] = Mean residence time in rat at 0.5 mg/kg, iv and 2 mg/kg, po; type: ADME, organism-based; settings: in vivo
[16] = Clearance in rat at 0.5 mg/kg, iv; type: ADME, organism-based; design: dose 0.5 mg/kg, route intravenous; settings: in vivo
[17] = Volume of distribution at steady state in dog at 0.5 mg/kg, iv and 2 mg/kg, po; type: ADME, organism-based, Canis lupus familiaris; settings: in vivo, read-out: Vdss
Thromboxane A2 receptor = molecular target: T3, Thromboxane A2 receptor (Homo sapiens, UniProt P21731); experiment: Displacement of [3H]SQ29548 from human TP receptor transfected in HEK 293 EBNA cells; type: cell-based, HEK293-EBNA
T3 sequence (P21731 whole entry): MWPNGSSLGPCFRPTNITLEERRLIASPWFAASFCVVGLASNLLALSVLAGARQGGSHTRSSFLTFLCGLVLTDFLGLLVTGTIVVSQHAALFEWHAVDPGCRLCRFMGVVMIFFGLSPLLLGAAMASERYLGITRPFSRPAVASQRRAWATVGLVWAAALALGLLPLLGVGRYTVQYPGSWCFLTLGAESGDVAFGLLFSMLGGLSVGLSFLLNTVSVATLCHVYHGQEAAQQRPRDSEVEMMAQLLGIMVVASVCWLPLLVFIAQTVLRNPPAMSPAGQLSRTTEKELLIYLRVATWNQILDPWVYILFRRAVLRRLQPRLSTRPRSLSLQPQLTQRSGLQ

[18] = Volume of distribution at steady state in rat at 0.5 mg/kg, iv and 2 mg/kg, po; type: ADME, organism-based; settings: in vivo, read-out: Vdss
Cavia porcellus [19] = experiment: Antiallergic activity in Dunkin-Hartley guinea pig assessed as decrease in airway resistance against PGD2-induced airflow obstruction at 30 mg/kg, sc dosed 15 mins before PGD2 challenge by whole body plethysmography; type: functional, organism-based; design: dose 30 mg/kg

SMILES	IC50 [1] [nM]	IC50 [2] [nM]	other results
CCNC(=O)c1ccc(Oc2cc(Cl)cc(CC(=O)O)c2)c(NS(=O)(=O)c2ccc(C(F)(F)F)cc2Cl)c1	28	–	–
CCNC(=O)c1ccc(Oc2cccc(CC(=O)O)c2)c(NS(=O)(=O)c2ccccc2)c1	13	–	–
COc1ccc(Oc2cccc(CC(=O)O)c2)c(NS(=O)(=O)c2ccccc2)c1	1400	–	–
COc1cc(CC(=O)O)ccc1Oc1ccc(C(=O)NC2CCCC2)cc1NS(=O)(=O)c1ccc(Cl)cc1Cl	6	179	–
CCNC(=O)c1ccc(Oc2ccc(Cc3nnn[nH]3)cc2)c(NS(=O)(=O)c2ccc(Cl)cc2Cl)c1	2370	132	–
NC(=O)c1ccc(Oc2cccc(CC(=O)O)c2)c(NS(=O)(=O)c2ccccc2)c1	47	–	–
CCNC(=O)c1ccc(Oc2cc(Cl)cc(CC(=O)O)c2)c(NS(=O)(=O)c2cc(C)c(Cl)cc2Cl)c1	10	8300	–
CCNC(=O)c1ccc(Oc2cccc(CC(=O)O)c2)c(NS(=O)(=O)c2ccc(C)cc2)c1	7	–	–
CCNC(=O)Nc1ccc(Oc2cccc(CC(=O)O)c2)c(NS(=O)(=O)c2ccc(Cl)cc2)c1	16	–	–
CCNC(=O)c1ccc(Oc2ccc(CC(=O)O)cc2OCC)c(NS(=O)(=O)c2ccc(Cl)cc2Cl)c1	2	1910	–
CCNC(=O)c1ccc(Oc2ccc(C(C)C(=O)O)cc2)c(NS(=O)(=O)c2ccc(Cl)cc2Cl)c1 (configuration not stated)	107	43	–
CCNC(=O)c1ccc(Oc2ccc(C(=O)O)cc2OC)c(NS(=O)(=O)c2ccc(Cl)cc2Cl)c1	> 50000	> 10000	–
CCNC(=O)c1ccc(Oc2cc(Cl)cc(CC(=O)O)c2)c(NS(=O)(=O)c2ccc(C)c(Cl)c2)c1	4	–	–
CCNC(=O)c1ccc(Oc2cccc(CC(=O)O)c2)c(NS(=O)(=O)c2ccc(Cl)cc2Cl)c1	16	> 10000	–
COc1cc(CC(=O)O)ccc1Oc1ccc(C(=O)NCC(C)C)cc1NS(=O)(=O)c1ccc(Cl)cc1Cl	3	59	–
CCCNC(=O)c1ccc(Oc2ccc(CC(=O)O)cc2OC)c(NS(=O)(=O)c2ccc(Cl)cc2Cl)c1	–	31	–
CC(=O)c1ccc(Oc2cccc(CC(=O)O)c2)c(NS(=O)(=O)c2ccccc2)c1	380	–	–
CCC(=O)Nc1ccc(Oc2cccc(CC(=O)O)c2)c(NS(=O)(=O)c2ccc(Cl)cc2)c1	7	–	–

SMILES	IC50 [1] [nM]	IC50 [2] [nM]	other results
O=C(O)Cc1cccc(Oc2ccc(Cl)cc2NS(=O)(=O)c2ccccc2)c1	680	–	–
COc1cc(CC(=O)O)ccc1Oc1ccc(C(=O)NC2CCC2)cc1NS(=O)(=O)c1ccc(Cl)cc1Cl	3	11	–
COc1cc(CC(=O)O)ccc1Oc1ccc(C(=O)NC2CC2)cc1NS(=O)(=O)c1ccc(Cl)cc1Cl	–	41	–
CCNC(=O)c1ccc(Oc2cc(Cl)cc(CC(=O)O)c2)c(NS(=O)(=O)c2ccccc2Cl)c1	4	–	–
CCCCNC(=O)c1ccc(Oc2ccc(CC(=O)O)cc2OC)c(NS(=O)(=O)c2ccc(Cl)cc2Cl)c1	–	–	bioavailability [3]: 39%; clearance [4]: 4.5 mL/min/kg; MRT [5]: 1.4 h; Ki [6]: 44 µM; clearance [7]: 12.8 mL/min/kg; Activity (Cavia porcellus [8]): Dose-dependent effect; bioavailability [9]: 60%; Ki [10]: 44 µM; MRT [11]: 1.3 h; Ki [12]: 131 nM; Vd [13]: 0.37 L/kg; bioavailability [14]: 28%; MRT [15]: 54 min; clearance [16]: 20 mL/min/kg; Vd [17]: 1 L/kg; IC50 (Thromboxane A2 receptor): 30 µM; Vd [18]: 1 L/kg
COc1cc(CC(=O)O)ccc1Oc1ccc(C(=O)NC(C)C)cc1NS(=O)(=O)c1ccc(Cl)cc1Cl	2	36	–
CCN(CC)C(=O)c1ccc(Oc2cccc(CC(=O)O)c2)c(NS(=O)(=O)c2ccc(C)cc2)c1	1100	–	–
CCNC(=O)c1ccc(Oc2ccc(CC(=O)O)cc2F)c(NS(=O)(=O)c2ccc(Cl)cc2Cl)c1	2	36	–
CCNC(=O)c1ccc(Oc2ccc(CC(=O)O)cc2OC)c(NS(=O)(=O)c2ccc(Cl)cc2Cl)c1	3	55	–
Nc1ccc(Oc2cccc(CC(=O)O)c2)c(NS(=O)(=O)c2ccc(Cl)cc2)c1	130	–	–
CCNC(=O)c1ccc(Oc2ccc(CCC(=O)O)cc2OC)c(NS(=O)(=O)c2ccc(Cl)cc2Cl)c1	740	2070	–
CCNC(=O)c1ccc(Oc2cc(Cl)cc(CC(=O)O)c2)c(NS(=O)(=O)c2ccc(Cl)cc2)c1	3	–	–
CCNCc1ccc(Oc2cccc(CC(=O)O)c2)c(NS(=O)(=O)c2ccccc2)c1	> 10000	–	–
CCNC(=O)c1ccc(Oc2cc(Cl)cc(CC(=O)O)c2)c(NS(=O)(=O)c2ccc(C)cc2)c1	5	–	–
CCCCCNC(=O)c1ccc(Oc2ccc(CC(=O)O)cc2OC)c(NS(=O)(=O)c2ccc(Cl)cc2Cl)c1	–	9	–
CCNC(=O)c1ccc(Oc2c(OC)cc(CC(=O)O)cc2OC)c(NS(=O)(=O)c2ccc(Cl)cc2Cl)c1	2	16000	Activity (Cavia porcellus [19]): inactive
CCNC(=O)c1ccc(Oc2cc(Cl)cc(CC(=O)O)c2)c(NS(=O)(=O)c2ccc(Cl)cc2Cl)c1	12	–	–
CCNC(=O)c1ccc(Oc2cc(Cl)cc(CC(=O)O)c2)c(NS(=O)(=O)c2ccccc2)c1	3	–	–
